From the supplement of paper PMC10883282
± gives the standard deviation of the averaged measurements.

Columns and labels:
SW1353 [1] = assay: standardised AUC of viability dose-response curve (72 h) (fraction (0-1)); higher = less growth inhibition (more resistant)
In short: (§1)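 Sarcoma cell lines in 384-well plates were treated in triplicate for 72 h with 2.5 µl of compound dilution series (compound-plate series 10 mM to 0.0002 mM, 1:3 steps). ATPLite viability was scaled 1 (full) to 0 (none) and fitted per drug and cell line with a four-parameter log-logistic model. The standardised area under the dose-response curve in log-dose space (modified drexplorer computeAUC) runs from 1 (no response) to 0 (full response).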

SYO-1 [2] = assay: as above
In short: as §1

SW982 = assay: as above
In short: as §1

A204 = assay: as above
In short: as §1

SW684 = assay: as above
In short: as §1

SW872 = assay: as above
In short: as §1

RD-ES = assay: as above
In short: as §1

KHOS-NP = assay: as above
In short: as §1

G401 = assay: as above
In short: as §1

KHOS-240S [3] = assay: as above
In short: as §1

SK-ES-1 = assay: as above
In short: as §1

HS729 = assay: as above
In short: as §1

RD [4] = assay: as above
In short: as §1

HT1080 = assay: as above
In short: as §1

SK-LMS-1 = assay: as above
In short: as §1

MES-SA [5] = assay: as above
In short: as §1

VA-ES-BJ = assay: as above
In short: as §1

SW1353 [6] = assay: relative viability vs DMSO control (72 h) (fraction); higher = more viable cells
In short: (§2)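 Sarcoma cell lines in 384-well plates, seeded to reach 80–90% confluence, were given compound after 24 h and kept 72 h at 37 °C, 5% CO2, with 0.1% DMSO vehicle and a 5 µM positive control. Relative viability came from ATPLite as percent growth, averaged over up to triplicate wells. On the rescaled values, 1 equals full and 0 equals none.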

SYO-1 [7] = assay: as above
In short: as §2

KHOS-240S [8] = assay: as above
In short: as §2

RD [9] = assay: as above
In short: as §2

MES-SA [10] = assay: as above
In short: as §2

## CNC(=O)c1nnc(NC(=O)C2CC2)cc1Nc1cccc(-c2ncn(C)n2)c1OC
SW1353 [1]
  standardised AUC: 0.986
SYO-1 [2]
  standardised AUC: 0.989
SW982
  standardised AUC: 0.983
A204
  standardised AUC: 0.978
SW684
  standardised AUC: 0.991
SW872
  standardised AUC: 0.983
RD-ES
  standardised AUC: 0.99
KHOS-NP
  standardised AUC: 0.993
G401
  standardised AUC: 0.99
KHOS-240S [3]
  standardised AUC: 0.976
SK-ES-1
  standardised AUC: 0.958
HS729
  standardised AUC: 0.956
RD [4]
  standardised AUC: 0.983
HT1080
  standardised AUC: 0.992
SK-LMS-1
  standardised AUC: 0.988
MES-SA [5]
  standardised AUC: 0.984
VA-ES-BJ
  standardised AUC: 0.986
SW1353 [6]; 0.00017 µM
  relative viability: 0.962 ± 0.024
SW1353 [6]; 0.00051 µM
  relative viability: 0.988 ± 0.0088
SW1353 [6]; 0.00152 µM
  relative viability: 0.968 ± 0.02
SW1353 [6]; 0.00457 µM
  relative viability: 1 ± 0.036
SW1353 [6]; 0.01372 µM
  relative viability: 0.985 ± 0.031
SW1353 [6]; 0.04115 µM
  relative viability: 0.982 ± 0.042
SW1353 [6]; 0.1235 µM
  relative viability: 0.978 ± 0.062
SW1353 [6]; 0.3704 µM
  relative viability: 0.964 ± 0.034
SW1353 [6]; 1.111 µM
  relative viability: 0.948 ± 0.049
SW1353 [6]; 3.333 µM
  relative viability: 0.9937 ± 0.0088
SW1353 [6]; 10 µM
  relative viability: 0.911 ± 0.044
SYO-1 [7]; 0.00017 µM
  relative viability: 0.958 ± 0.039
SYO-1 [7]; 0.00051 µM
  relative viability: 0.969 ± 0.028
SYO-1 [7]; 0.00152 µM
  relative viability: 0.924 ± 0.059
SYO-1 [7]; 0.00457 µM
  relative viability: 0.937 ± 0.043
SYO-1 [7]; 0.01372 µM
  relative viability: 0.952 ± 0.037
SYO-1 [7]; 0.04115 µM
  relative viability: 0.935 ± 0.03
SYO-1 [7]; 0.1235 µM
  relative viability: 0.924 ± 0.065
SYO-1 [7]; 0.3704 µM
  relative viability: 0.888 ± 0.089
SYO-1 [7]; 1.111 µM
  relative viability: 0.928 ± 0.04
SYO-1 [7]; 3.333 µM
  relative viability: 0.983 ± 0.031
SYO-1 [7]; 10 µM
  relative viability: 0.918 ± 0.023
KHOS-240S [8]; 0.00017 µM
  relative viability: 1.08 ± 0.028
KHOS-240S [8]; 0.00051 µM
  relative viability: 1.07 ± 0.028
KHOS-240S [8]; 0.00152 µM
  relative viability: 1.059 ± 0.0017
KHOS-240S [8]; 0.00457 µM
  relative viability: 1.05 ± 0.016
KHOS-240S [8]; 0.01372 µM
  relative viability: 1.07 ± 0.032
KHOS-240S [8]; 0.04115 µM
  relative viability: 1.04 ± 0.019
KHOS-240S [8]; 0.1235 µM
  relative viability: 1.06 ± 0.028
KHOS-240S [8]; 0.3704 µM
  relative viability: 1.07 ± 0.018
KHOS-240S [8]; 1.111 µM
  relative viability: 1.08 ± 0.026
KHOS-240S [8]; 3.333 µM
  relative viability: 1.06 ± 0.011
KHOS-240S [8]; 10 µM
  relative viability: 1.03 ± 0.016
RD [9]; 0.00017 µM
  relative viability: 1.1 ± 0.093
RD [9]; 0.00051 µM
  relative viability: 1.11 ± 0.041
RD [9]; 0.00152 µM
  relative viability: 1.12 ± 0.015
RD [9]; 0.00457 µM
  relative viability: 1.12 ± 0.036
RD [9]; 0.01372 µM
  relative viability: 1.1 ± 0.041
RD [9]; 0.04115 µM
  relative viability: 1.09 ± 0.088
RD [9]; 0.1235 µM
  relative viability: 1.11 ± 0.056
RD [9]; 0.3704 µM
  relative viability: 1.08 ± 0.077
RD [9]; 1.111 µM
  relative viability: 1.1 ± 0.068
RD [9]; 3.333 µM
  relative viability: 1.09 ± 0.028
RD [9]; 10 µM
  relative viability: 0.994 ± 0.033
MES-SA [10]; 0.00017 µM
  relative viability: 0.926 ± 0.034
MES-SA [10]; 0.00051 µM
  relative viability: 0.938 ± 0.016
MES-SA [10]; 0.00152 µM
  relative viability: 0.926 ± 0.024
MES-SA [10]; 0.00457 µM
  relative viability: 0.92 ± 0.018
MES-SA [10]; 0.01372 µM
  relative viability: 0.943 ± 0.024
MES-SA [10]; 0.04115 µM
  relative viability: 0.952 ± 0.044
MES-SA [10]; 0.1235 µM
  relative viability: 0.944 ± 0.0097
MES-SA [10]; 0.3704 µM
  relative viability: 0.943 ± 0.019
MES-SA [10]; 1.111 µM
  relative viability: 0.923 ± 0.0098
MES-SA [10]; 3.333 µM
  relative viability: 0.891 ± 0.024
MES-SA [10]; 10 µM
  relative viability: 0.669 ± 0.017
